Results taken from the supplement of paper PMC13380429.

Columns and labels:
Details in all cases: 72 h
Caco-2 [1] = assay: drug sensitivity score (DSS) for viability; higher = more toxic; extreme values may be limits of the assay
Calu-3 [2] = assay: as above
Vero E6 [3] = assay: as above
U2OS [4] = assay: as above
Caco-2 [5] = assay: relative viability EC50 (midpoint between 100% and the lowest measured viability); higher = less toxic
Calu-3 [6] = assay: as above
Vero E6 [7] = assay: as above
U2OS [8] = assay: as above
Caco-2 [9] = assay: cell viability relative to DMSO; higher = less toxic
Calu-3 [10] = assay: as above
Vero E6 [11] = assay: as above
U2OS [12] = assay: as above
HepG2 [13] = assay: drug sensitivity score (DSS) for viability; higher = more toxic; extreme values may be limits of the assay
HepG2 [14] = assay: relative viability EC50 (midpoint between 100% and the lowest measured viability); higher = less toxic
HepG2 [15] = assay: cell viability relative to DMSO; higher = less toxic

Compound	drug sensitivity score (Caco-2 [1])	drug sensitivity score (Calu-3 [2])	drug sensitivity score (Vero E6 [3])	drug sensitivity score (U2OS [4])	relative viability EC50 (Caco-2 [5]) [µM]	relative viability EC50 (Calu-3 [6]) [µM]	relative viability EC50 (Vero E6 [7]) [µM]	relative viability EC50 (U2OS [8]) [µM]	cell viability (Caco-2 [9]; 1 nM) [%]	cell viability (Caco-2 [9]; 10 nM) [%]	cell viability (Caco-2 [9]; 100 nM) [%]	cell viability (Caco-2 [9]; 1000 nM) [%]	cell viability (Caco-2 [9]; 10000 nM) [%]	cell viability (Calu-3 [10]; 1 nM) [%]	cell viability (Calu-3 [10]; 10 nM) [%]	cell viability (Calu-3 [10]; 100 nM) [%]	cell viability (Calu-3 [10]; 1000 nM) [%]	cell viability (Calu-3 [10]; 10000 nM) [%]	cell viability (Vero E6 [11]; 1 nM) [%]	cell viability (Vero E6 [11]; 10 nM) [%]	cell viability (Vero E6 [11]; 100 nM) [%]	cell viability (Vero E6 [11]; 1000 nM) [%]	cell viability (Vero E6 [11]; 10000 nM) [%]	cell viability (U2OS [12]; 1 nM) [%]	cell viability (U2OS [12]; 10 nM) [%]	cell viability (U2OS [12]; 100 nM) [%]	cell viability (U2OS [12]; 1000 nM) [%]	cell viability (U2OS [12]; 10000 nM) [%]	drug sensitivity score (HepG2 [13])	relative viability EC50 (HepG2 [14]) [µM]	cell viability (HepG2 [15]; 1 nM) [%]	cell viability (HepG2 [15]; 10 nM) [%]	cell viability (HepG2 [15]; 100 nM) [%]	cell viability (HepG2 [15]; 1000 nM) [%]	cell viability (HepG2 [15]; 10000 nM) [%]
Cc1[nH]c2ccc(O)cc2c1CCN [2-methyl-5-hydroxytryptamine]	0	0	0	0	> 10	> 10	> 10	> 10	104	105	98.3	102	102	109	109	102	101	99.3	95	96.5	98.4	96.6	94.9	101	101	97.3	106	101							
CN(C)CCOc1cc(-c2cn[nH]c2)ccc1NC(=O)C1COc2ccccc2O1 (centres undefined) [SR-3677]	0	0	3.3	0.8	> 10	> 10		> 10	100	95.6	105	105	94.9	102	93.4	99.4	148	134	96.5	95.9	95.7	81.4	68.8	99.8	101	95.6	98.6	79.6	1.1	> 10	99.3	108	101	86	88.4
NS(=O)(=O)NCc1csc2ccccc12	0	0		0	> 10	> 10		> 10	84.1	95.7	96.2	94.3	87.3	90.7	93.4	94.8	103	95.4						102	106	96.4	104	99.8	0	> 10	109	97	111	98.7	112
COc1ccccc1Oc1c(NS(=O)(=O)c2ccc(C(C)(C)C)cc2)nc(-c2ncccn2)nc1OCCO [bosentan]	0.9	0	0.2	0	> 10	> 10	> 10	> 10	106	98.4	103	96.6	81.1	102	94.2	99.1	114	102	95.1	100	94.3	93.9	85.3	98	102	98	99.9	91							
COc1ccc(OC)c(C(O)C(C)N)c1 (centres undefined) [methoxamine]		0	0			> 10	> 10							93.7	99.6	103	100	109	109	107	99.4	102	102												
Clc1ccc(COC(Cn2ccnc2)c2ccc(Cl)cc2Cl)cc1 (centres undefined) [econazole]	2.5	0	0	0		> 10	> 10	> 10	94.5	90.1	97	90.9	68.6	104	103	103	102	98.5	104	108	106	102	94.7	102	97.8	95.6	95.3	90.7	1.5		100	98.1	102	97.3	72.6
CCOc1nc2cccc(C(=O)OCc3oc(=O)oc3C)c2n1Cc1ccc(-c2ccccc2-c2noc(=O)[nH]2)cc1 [azilsartan-medoxomil]	0.1	0	0	0	> 10	> 10	> 10	> 10	107	86.4	83.3	107	85.1	104	102	96.3	101	93.1	113	107	107	99.4	101	98.7	101	94.7	97.3	92.8							
C[C@H](N)C(=O)O [L-alanine]	0	0.2	0	0	> 10	> 10	> 10	> 10	102	96.6	99.4	106	105	102	94.3	99.6	106	84.2	104	103	106	98.9	104	94.5	102	104	105	96.3							
COc1cc([C@@H]2c3cc4c(cc3[C@@H](O[C@@H]3O[C@@H]5CO[C@@H](c6cccs6)O[C@H]5[C@H](O)[C@H]3O)[C@H]3COC(=O)[C@H]23)OCO4)cc(OC)c1O [teniposide]	7.8	12.6	4.6	9.4	1.16	0.129		1.37	108	95.7	100	71	29	91.1	92.6	75.8	47.2	40.6	106	92.8	100	75	64	99.3	94.4	92.7	66.5	4.2	21.5	0.0761	89.6	86.1	47.3	27.8	9.9
CN(c1nccc(=O)[nH]1)C1CCN(c2nc3ccccc3n2Cc2ccc(F)cc2)CC1 [mizolastine]	0	0	0	0	> 10	> 10	> 10	> 10	89.5	99.9	98	100	98.3	103	104	99.5	102	108	97.5	101	98.6	97.8	107	101	98.5	101	103	102							
CC(C)=CCC[C@](C)(O)[C@H]1CC[C@]2(C)[C@@H]1[C@H](O)C[C@@H]1[C@@]3(C)CC[C@H](O)C(C)(C)[C@@H]3[C@@H](O)C[C@]12C [hemomex-s]	0	0	0	0	> 10	> 10	> 10	> 10	113	106	103	111	96.9	105	109	112	105	93.4	96.1	93.9	96.6	98.8	99.2	97.4	101	99.8	101	100							
CCCCCCCCCCCCCCCCO [1-hexadecanol]	0	0	0	0	> 10	> 10	> 10	> 10	107	97.4	87.3	96.6	95.1	94	95.5	102	95.5	97.3	99.7	97.3	96	95.9	102	97.8	100	97	97.3	92.7							
